Assay results taken from patent publication US20040018562A1, “Receptor detection” (priority 2002, published 2004).

What was measured:
[1] = tested on: membrane protein from CHO-M1; test: Binding of enzyme donor-GTP gamma-S conjugate to membrane protein (open/close readings); conditions: 1 hr
Protocol: 20 ul of membrane protein (10 ug from CHO-M1) in a binding buffer (50 mM HEPES, 20 mM NaCl, 10 mM MgCl2, with 1 mM DTT or 0.01% CHAPS) was incubated with 10 ul of enzyme donor-GTP gamma-S conjugate at various concentrations for 60 minutes at ambient temperature. 10 ul of enzyme acceptor (0.18 uM) and 15 ul of the chemiluminescent reagent, Galacton Star with Emerald plus (Applied Biosystems, Foster city, Calif.) added and the microtiter plate read on the Lumicount (Packard, Meridien, Conn.). The readings are tabulated below with ED46 mer used as control. Open and Close refer to free and bound enzyme donor conjugate to enzyme acceptor. Percentage inhibition is calculated by (open-close)/open readings.

[2] = tested on: membrane protein from CHO-M1; test: Modulation of enzyme donor-GTP gamma-S conjugate inhibition by GTP gamma-S; type: binding; conditions: 1 hr; for % I: absence of GTP-gamma-S; for GTP-r-S (reading): membrane preincubated with GTP gamma-S
Protocol: In order to test if the inhibition was capable of being modulated. The experiments were performed by incubating the membrane preparation with GTPgamma-S (10 ul of 10 uM). Higher concentrations of enzyme donor together with another detergent saponin were tried to enhance signal and minimize non-specific binding.
10 ul of membrane protein (10 ug from CHO-M1) in a binding buffer (50 mM HEPES, 20 mM NaCl, 10 mM MgCl2, with 0.01% CHAPS or 0.01% saponin) was incubated with 10 ul of GTP gamma-S for 30 minutes at room temperature 10 ul of the enzyme donor conjugate at various concentrations was added and the mixture incubated for 60 minutes at ambient temperature. 10 ul of enzyme acceptor (0.45 uM) and 15 ul of the chemiluminescent reagent, Galacton Star with Emerald plus (Applied Biosystems, Foster city, Calif.) added and the microtiter plate read on the Lumicount (Packard, Meridien, Conn.). The readings are tabulated below with ED46 mer used as control. Open and close refer to free and bound enzyme donor conjugate to enzyme acceptor. Percentage inhibition is calculated by (open-close)/open readings and is in the absence of GTP-gamma-S.

[3] = Buffer with 0.01% CHAPS, 0.5 nM
[4] = Buffer with 0.01% Saponin, 0.5 nM
[5] = Buffer with 0.01% Saponin, 5 nM
[6] = Buffer with 0.01% Saponin, 10 nM
[7] = Buffer with 0.01% Saponin, 25 nM
[8] = Buffer with 0.01% Saponin, 50 nM

Question: Which results are given for “SLAVVLQRRDWENPGVTQLNKLAAHPPFASWRNSEEARTDCPSQQL [45+1 mer, 46 mer enzyme donor fragment]”?
Answer: % I ([1]; Binding buffer wCHAPS, 0.1 nM): 10.0%; close ([1]; Binding buffer wCHAPS, 0.1 nM): 1706; open ([1]; Binding buffer wCHAPS, 0.1 nM): 1895; % I ([1]; Binding buffer wCHAPS, 0.5 nM): 3.9%; close ([1]; Binding buffer wCHAPS, 0.5 nM): 1846; open ([1]; Binding buffer wCHAPS, 0.5 nM): 1921; % I ([1]; Binding buffer wCHAPS, 5 nM): 1.7%; close ([1]; Binding buffer wCHAPS, 5 nM): 3383; open ([1]; Binding buffer wCHAPS, 5 nM): 3442; % I ([1]; Binding buffer wCHAPS, 10 nM): 6.0%; close ([1]; Binding buffer wCHAPS, 10 nM): 5017; open ([1]; Binding buffer wCHAPS, 10 nM): 5339; % I ([1]; Binding buffer wDTT, 0.1 nM): 16.8%; close ([1]; Binding buffer wDTT, 0.1 nM): 1357; open ([1]; Binding buffer wDTT, 0.1 nM): 1632; % I ([1]; Binding buffer wDTT, 0.5 nM): 15.2%; close ([1]; Binding buffer wDTT, 0.5 nM): 1338; open ([1]; Binding buffer wDTT, 0.5 nM): 1579; % I ([1]; Binding buffer wDTT, 5 nM): 6.8%; close ([1]; Binding buffer wDTT, 5 nM): 2372; open ([1]; Binding buffer wDTT, 5 nM): 2544; % I ([1]; Binding buffer wDTT, 10 nM): 12.6%; close ([1]; Binding buffer wDTT, 10 nM): 3502; open ([1]; Binding buffer wDTT, 10 nM): 4006; % I ([1]; Binding buffer, 0.1 nM): 5.8%; close ([1]; Binding buffer, 0.1 nM): 1773; open ([1]; Binding buffer, 0.1 nM): 1882; % I ([1]; Binding buffer, 0.5 nM): −2.3%; close ([1]; Binding buffer, 0.5 nM): 1940; open ([1]; Binding buffer, 0.5 nM): 1896; % I ([1]; Binding buffer, 5 nM): −1.1%; close ([1]; Binding buffer, 5 nM): 2952; open ([1]; Binding buffer, 5 nM): 2921; % I ([1]; Binding buffer, 10 nM): 6.7%; close ([1]; Binding buffer, 10 nM): 4176; open ([1]; Binding buffer, 10 nM): 4474; % M [2, 3]: −1.6%; close [2, 3]: 353; open [2, 3]: 322; % I [2, 3]: −9.7%; GTP-r-S (reading) [2, 3]: 348; % M ([2]; Buffer with 0.01% CHAPS, 5 nM): 10.2%; close ([2]; Buffer with 0.01% CHAPS, 5 nM): 1318; open ([2]; Buffer with 0.01% CHAPS, 5 nM): 1214; % I ([2]; Buffer with 0.01% CHAPS, 5 nM): −8.6%; GTP-r-S (reading) ([2]; Buffer with 0.01% CHAPS, 5 nM): 1468; % M ([2]; Buffer with 0.01% CHAPS, 10 nM): 6.1%; close ([2]; Buffer with 0.01% CHAPS, 10 nM): 3265; open ([2]; Buffer with 0.01% CHAPS, 10 nM): 2971; % I ([2]; Buffer with 0.01% CHAPS, 10 nM): −9.9%; GTP-r-S (reading) ([2]; Buffer with 0.01% CHAPS, 10 nM): 3478; % M ([2]; Buffer with 0.01% CHAPS, 25 nM): −1.4%; close ([2]; Buffer with 0.01% CHAPS, 25 nM): 10782; open ([2]; Buffer with 0.01% CHAPS, 25 nM): 8526; % I ([2]; Buffer with 0.01% CHAPS, 25 nM): −26.5%; GTP-r-S (reading) ([2]; Buffer with 0.01% CHAPS, 25 nM): 10634; % M ([2]; Buffer with 0.01% CHAPS, 50 nM): 4.5%; close ([2]; Buffer with 0.01% CHAPS, 50 nM): 18587; open ([2]; Buffer with 0.01% CHAPS, 50 nM): 17367; % I ([2]; Buffer with 0.01% CHAPS, 50 nM): −7.0%; GTP-r-S (reading) ([2]; Buffer with 0.01% CHAPS, 50 nM): 19466; % M [2, 4]: 19.6%; close [2, 4]: 228; open [2, 4]: 215; % I [2, 4]: −6.4%; GTP-r-S (reading) [2, 4]: 284; % M [2, 5]: 20.2%; close [2, 5]: 827; open [2, 5]: 763; % I [2, 5]: −8.3%; GTP-r-S (reading) [2, 5]: 1035; % M [2, 6]: 11.6%; close [2, 6]: 2220; open [2, 6]: 2103; % I [2, 6]: −5.6%; GTP-r-S (reading) [2, 6]: 2510; % M [2, 7]: 10.5%; close [2, 7]: 6971; open [2, 7]: 6600; % I [2, 7]: −5.6%; GTP-r-S (reading) [2, 7]: 7790; % M [2, 8]: 8.9%; close [2, 8]: 13597; open [2, 8]: 13133; % I [2, 8]: −3.5%; GTP-r-S (reading) [2, 8]: 14932
